Test results taken from patent US11725006B2, “Hydrophilic berberine-type derivative and application thereof in preparing drug” (INSTITUTE OF MATERIA MEDICA, CHINESE ACADEMY OF MEDICAL …, priority 2018, dated 2023).
Where “and” joins values, the source holds several entries; their conditions need not be identical. Equal values may be shown once. Where a name gives a salt, the structure may show the parent alone. Read-outs that look alike come from different tables or passages of the source. Marks after values point to notes of the source that are not given here. One block for each molecule: values may come before it.

Assays:
[1] = tested on: colorectal cancer model mice induced by AOM/DSS; assay: Colorectal cancer model mice induced by AOM/DSS; format: in vivo, C57b1/6j mice; conditions: 250 mg/kg by gavage, two weeks on, one week off, 12 weeks
[2] = Alcohol-solubility examination in 95% ethanol under refluxing; format: physicochemical; conditions: per gram of compound, within 30 minutes
Method: The compounds of the invention were weighed and placed into different amount of 95% ethanol solvent under refluxing, respectively. The dissolution status within 30 minutes was observed. If there were no visible solute particle, it would be regarded as complete dissolution.

[3] = Hydrosolubility examination in pure water; format: physicochemical; conditions: per milliliter of purified water, 25° C.±2° C., visual, within 30 minutes
Method: The compounds of the invention were weighed and placed into a certain amount of pure water solvent under 25° C.±2° C., respectively. […] If there were no visible solute particle, it would be regarded as complete dissolution.

[4] = tested on: C57b1/6j mice model of ulcerative colitis induced by DSS; assay: Acute ulcerative colitis model induced by dextran sodium sulfate (DSS); format: in vivo; conditions: for Percentage of colon contracture: compared to colon length in normal control group; for body weight loss percentage: compared with body weight at the beginning of the experiment; for Body weight change rate: end versus start
Method: (1) Animals: C57b1/6j mice, male (20-22 g); seven mice in each group.
(3) Dosage and times of administration: The positive drug was 500 mg/kg, both dihydrocoptisine and the compounds of the invention were 100 mg/kg, once a day for eight days.
(4) Experimental methods: The method of this experiment was a literature method: see Zhi-Hui Zhang, Hai-Jing Zhang, An-Jun Deng, Bo Wang, Zhi-Hong Li,
Yang Liu, Lian-Qiu Wu, Wen-Jie Wang, and Hai-Lin Qin. Synthesis and Structure-activity Relationships of Quaternary Coptisine Derivatives as Potential Anti-ulcerative Colitis Agents. Journal of Medicinal Chemistry. 2015, 58, 7557-7571.
The effect of the compounds of the invention on the disease activity index (DAI) and the inhibition rate of DAI in the C57b1/6j mice model of ulcerative colitis induced by DSS was investigated. […] In Table 5, **, P<0.01, compared with the normal control group; ^#, P<0.05 and ^##, P<0.01, compared with the model group.

[5] = tested on: acute ear swelling model of mice caused by croton oil; assay: Acute ear swelling model of mice caused by croton oil; format: in vivo, Balb/c mice; conditions: 5 mg/kg by gavage
[6] = tested on: Staphylococcus aureus; assay: MIC by twofold microdilution broth method; format: cell-based; conditions: 24 h; for MIC: Staphylococcus aureus, read-out: MIC S. aureus
Method: (§1) (1) Strains: Staphylococcus aureus, Escherichia colt, Candida albicans MCC (F) 98001.
(§2) (2) Experimental method: the anti-bacterial activity of the compounds of the invention was evaluated by determining the minimum inhibitory concentration (MIC) using the twofold microdilution broth method. The compounds of the invention and the reference substances (quaternary ammonium salt substrates of berberine-type alkaloids and levofloxacin) were prepared into a 20000 μg/ml stock solution with DMSO for use. S. aureus and E. coli were diluted using MHB (Mueller Hinton Broth) medium, and C. albicans using Sabouraud medium, all prepared into 10^6 CFU (colony forming unit) concentration as bacterial suspensions for use. The determination steps of MIC are as follows. First, 180 μl of MHB medium (for S. aureus and E. coli) or Sabouraud Medium (for C. albicans) was transferred to the first well in each row of the sterile 96 well plate, and 100 μl to the second to the 11th wells of each row, and 200 μl to the 12th well as negative blank control well. 20 μl sample stock solution was taken and added to the first well. After mixed up, 100 μl was taken from the first well and transferred to the second well. The same as mentioned above, the second well was mixed up, 100 μl of mixed content was taken from the second well and added to the third well, as described above. As such, the same operation was continued till the 10th well, and finally 100 μl of content was drawn from the 10th well and discarded. The bacterial suspension of 100 μl was added to each of the aforementioned from first to eleven wells and mixed up. Three parallel groups for each sample were set up. The 96 well plates were put into the incubator to culture for 24 h. […] The MIC values of each sample to be tested as well as those of the references were observed and recorded with the naked eyes.

[7] = tested on: Candida albicans MCC (F) 98001; assay: MIC by twofold microdilution broth method; format: cell-based; conditions: 24 h; for MIC: Candida albicans, read-out: MIC C. albicans
Method: as §1, §2

[8] = tested on: Escherichia coli; assay: MIC by twofold microdilution broth method; format: cell-based; conditions: 24 h, read-out: MIC E. coli
Method: as §1, §2

[9] = 100 mg/kg, listed as dihydrocoptisine
[10] = Sabouraud medium, 25° C., stock solution 20000 μg/ml

Structure (SMILES): CCCCCOC(=O)Nc1nc(=O)n([C@@H]2O[C@H](C)[C@@H](O)[C@H]2O)cc1F [Capecitabine]
Spleen weight [1]: 0.228 ± 0.029 g | Tumor burden (relatively calculated value) [1]: 42.69 ± 10.26 piece | Spleen weight ([1]; listed as capecitabine): 0.228 ± 0.029 g | Tumor burden (relatively calculated value) ([1]; listed as capecitabine): 42.69±10.26 piece

Structure (SMILES): ClC(Cl)c1c2c3c(ccc2cc2[n+]1CCc1cc4c(cc1-2)OCO4)OCO3.O=C([O-])/C=C\C(=O)O [Compound 25, 8-dichloromethyl coptisine hydrogen maleate]
amount of 95% ethanol solvent required for dissolving each gram [2]: 23 mL

Structure (SMILES): COc1ccc2cc3[n+](c(C(Cl)Cl)c2c1OC)CCc1cc2c(cc1-3)OCO2.O=C([O-])/C=C\C(=O)O [Compound 27, 8-dichloromethyl berberine hydrogen maleate]
amount dissolved in each milliliter of water [3]: 3.83 mg | amount of 95% ethanol solvent required for dissolving each gram [2]: 5.8 mL

Structure (SMILES): Cc1ccc(S(=O)(=O)[O-])cc1.ClC(Cl)c1c2c3c(ccc2cc2[n+]1CCc1cc4c(cc1-2)OCO4)OCO3 [Compound 29, 8-dichloromethyl coptisine tosylate]
amount of 95% ethanol solvent required for dissolving each gram [2]: 24 mL

Structure (SMILES): COc1ccc2cc3[n+](c(C(Cl)Cl)c2c1OC)CCc1cc2c(cc1-3)OCO2.Cc1ccc(S(=O)(=O)[O-])cc1 [Compound 31, 8-dichloromethyl berberine tosylate]
amount dissolved in each milliliter of water [3]: 5.0 mg | amount of 95% ethanol solvent required for dissolving each gram [2]: 7 mL

amount dissolved in each milliliter of water [3]: 6.45 mg | amount of 95% ethanol solvent required for dissolving each gram [2]: 7 mL
Structure (SMILES): COc1ccc2cc3[n+](c(C(Cl)Cl)c2c1OC)CCc1cc2c(cc1-3)OCO2.O=S(=O)([O-])c1ccccc1 [Compound 47, 8-dichloromethyl berberine benzenesulfonate]

Structure (SMILES): C1=C2c3cc4c(cc3CCN2Cc2c1ccc1c2OCO1)OCO4 [Dihydrocoptisine, dihydrocoptisine]
Colon length ([4]; 100 mg/kg): 6.23 ± 0.14^## cm | DAI ([4]; 100 mg/kg): 2.24 ± 0.97^## | DAI inhibition rate ([4]; 100 mg/kg): 44.03^## % | Body weight (g) X ± SD End ([4]; 100 mg/kg once a day for eight days): 18.43 ± 2.01 g | Percentage of colon contracture ([4]; 100 mg/kg): 23.93^## % | Percentage of colon contracture [4, 9]: 23.93% | body weight loss percentage ([4]; 100 mg/kg): 18.77% | Body weight change rate ([4]; 100 mg/kg): −18.77^# % | Colon length [4, 9]: 6.23 cm | DAI inhibition rate [4, 9]: 44.03%

Structure (SMILES): COc1ccc2c(c1)c(CC(=O)O)c(C)n2C(=O)c1ccc(Cl)cc1 [Indomethacin]
Inhibition rate (ear swelling) [5]: 26.01^# % | Degree of swelling ([5]; 4 hours after croton oil): 70.26 ± 20.97 mg | Inhibition rate (ear swelling) ([5]; listed as indomethacin): 26.01%

MIC ([6]; MHB medium, 37° C.): < 1.95 µg/mL | MIC [7, 10]: > 250 µg/mL | MIC C. albicans [7, 10]: more than 250 ug/mL | MIC ([8]; MHB medium, 37° C.): < 1.95 µg/mL
Structure (SMILES): C[C@H]1COc2c(N3CCN(C)CC3)c(F)cc3c(=O)c(C(=O)O)cn1c23 [Levofloxacin]

Structure (SMILES): O=C(O)c1cc(/N=N/c2ccc(S(=O)(=O)Nc3ccccn3)cc2)ccc1O [SASP, salazosulfapyridine]
Colon length ([4]; 500 mg/kg): 5.90 cm and 5.90 ± 0.30^# cm | DAI ([4]; 500 mg/kg): 3.07 ± 1.01^# | DAI inhibition rate ([4]; 500 mg/kg): 23.33% | Body weight (g) X ± SD End ([4]; 500 mg/kg once a day for eight days): 15.86 ± 1.58 g | Percentage of colon contracture ([4]; 500 mg/kg): 28.43% | body weight loss percentage ([4]; 500 mg/kg): 27.70% | Body weight change rate ([4]; 500 mg/kg): −27.70%

MIC S. aureus ([6]; MHB medium, 37° C.): 125 µg/mL | MIC ([6]; MHB medium, 37° C.): 125 µg/mL | MIC [7, 10]: 250 µg/mL | MIC C. albicans [7, 10]: 250 µg/mL | MIC ([8]; MHB medium, 37° C.): 250 µg/mL | amount dissolved in each milliliter of water [3]: < 2 mg
Structure (SMILES): COc1ccc2cc3[n+](cc2c1OC)CCc1cc2c(cc1-3)OCO2 [berberine hydrochloride]

Structure (SMILES): c1c2c(cc3c1OCO3)-c1cc3ccc4c(c3c[n+]1CC2)OCO4 [coptisine hydrochloride]
MIC S. aureus ([6]; MHB medium, 37° C.): more than 250 ug/mL | MIC [6]: > 250 µg/mL | MIC [7]: 250 µg/mL | MIC C. albicans [7, 10]: 250 µg/mL | MIC [8]: > 250 µg/mL | amount dissolved in each milliliter of water [3]: less than 1 mg
